Assay results: US4570005A, “Process for the preparation of 2-arylpropyl ether or thioether derivatives” (priority 1980, dated 1986)
Where two headings read alike, the source gives them in different places.

Experiments:
[1] = Test 9: Toxicity Test (acute oral toxicity, mice); conditions: mouse, in vivo, po
Description: A predetermined amount of a solution or suspension of a test compound in corn oil was orally administered to male mice having a body weight of 19 to 23 g (0.2 ml per 10 g of the body weight). After 7 days, the number of killed mice was counted and the influences on the mice were examined.

[2] = test system: resistant green rice leafhopper (collected at Nakagawara); test: Test 3: Effect on Resistant Green Rice Leafhopper (collected at Nakagawara); assay type: in vivo, Nephotettix cincticeps Uhler (Green rice leafhopper); conditions: Nephotettix cincticeps, 24 h, read-out: Mortality (%), Green Rice Leafhopper Collected at Nakagawara
Method in brief: (§1)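 Ten adult females per pot, either resistant (Nakagawara) or sensitive (Chigasaki), were caged on air-dried rice seedlings (2–3 leaves) sprayed at 3 ml/pot with 100 or 20 ppm of an emulsifiable concentrate dilution. Dead and living insects were counted after 24 hours; mortality is the mean of three pots.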

[3] = test system: tobacco cutworm; test: Test 2: Tobacco Cutworm Larva Dipping Test, mortality after 24 hours; assay type: in vivo; conditions: 24 hours
Description: (§2) To a mixture of 20 parts of the compound of the present invention and 20 parts of Sorpol SM-200 (registered tradename for the product supplied by Toho Chemical Industrial Co., Ltd.) was added 60 parts of xylol, and the mixture was suffciently blended. The obtained emulsifiable concentrate was diluted at a predetermined concentration with distilled water, and the obtained dilution was used.
A dilution having a chemical concentration of 100 or 20 ppm was prepared in the same manner as described in Test 1.
Second-instar and fifth-instar larvae of tobacco cutworm were dipped in the dilution for 5 seconds, and the excessive dilution was removed by a filter paper. Then, the larvae were set free in a plastic cup and an artificial diet was supplied thereto. The cup was allowed to stand still in a thermostat chamber maintained at 25° C. After 24 hours, the numbers of the killed and living larvae were counted and the mortality was calculated. The test was made on three cups and the result was expressed by an average value.

[4] = test system: tobacco cutworm; test: Test 1: Effect on Tobacco Cutworm (leaf immersion), mortality after 24 hours; assay type: in vivo; conditions: second-instar larvae, 25° C
Method in brief: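 Second-instar tobacco cutworm larvae were kept at 25 °C on air-dried sweet-potato leaves that had been immersed for 10 s in test dilutions of 100 or 20 ppm from an emulsifiable concentrate. Mortality was scored at 24 h as the mean of three cups.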

[5] = test system: sensitive green rice leafhopper (collected at Chigasaki); test: whole plant or invertebrate; assay type: in vivo; conditions: Nephotettix cincticeps, sensitive female adults, 24 hours, read-out: Mortality (%), Green Rice Leafhopper Collected at Chigasaki
Method in brief: as §1

[6] = test system: green peach aphid; test: Test 5: Effect on Green Peach Aphid; assay type: in vivo; conditions: Myzus persicae, read-out: Insecticidal Activity
Description: as §2
Seedlings (having 3 to 4 leaves) of an eggplant grown on a pot were inoculated with green peach aphids and the insects were allowed to grow. The number of the insects was counted. A chemical dilution having a concentration of 100 ppm, prepared in the same manner as described in Test 1, was applied with a spray gun at a rate of 10 ml per pot. Then, the pot was placed in a glass green house. After 24 hours, the number of living insects was counted and the mortality was calculated.
The test was made on three pots, and the average value was calculated. In Table 6, mark "A" indicates a mortality higher than 95%, mark "B" indicates a mortality of 80 to 95%, mark "C" indicates a mortality of 50 to 80%, and mark "D" indicates a mortality lower than 50%.

[7] = Test 8: Fish Toxicity; assay type: in vivo; conditions: carp, water; concentration at which 1/2 of the test fishes were killed within 48 hours; read-out: Fish Toxicity, TLm48
Description: A water tank having a width of 60 cm, a length of 30 cm and a height of 40 cm was filled with water, and 10 yearling carps having a body length of about 5 cm were set free in the tank and adapted to the environment in the tank. A test compound was applied so that the concentration in water was 10, 1 or 0.1 ppm. After 48 hours, the numbers of killed and living carps were counted and the influences on the fishes were examined.

[8] = test system: German cockroach; test: Test 7: Effect on German Cockroach; assay type: in vivo; conditions: Blattella germanica, male adults, agonized and killed after 24 hours, read-out: Mortality (%); for mortality at 10 mg/m2: 10 mg/m^2; for mortality at 50 mg/m2: 50 mg/m^2
Description: as §2
The bottom face of a high Petri dish having a diameter of 9 cm and a height of 9 cm was treated with 50 or 10 mg/m^2 of a test compound and the dish was air-dried. In order to prevent the adults from escaping from the dish, the inner wall of the dish was treated with butter. Then, 10 male adults of German cockroach were set free in each dish, and the dish was placed in a thermostat chamber maintained at 25° C. After 24 hours, the number of agonized and killed adults was counted. The test was made on two dishes and the average value was calculated.

[9] = test system: diamond back moth; test: Test 4: Effect on Diamond Back Moth; assay type: in vivo; conditions: Plutella, third-instar larvae, 24 hours, read-out: Mortality (%)
Description: as §2
Cabbage leaves were spread in a plastic cup, and 10 third-instar larvae of diamond back moth were set free in the cup.
A chemical dilution having a concentration of 100 or 20 ppm, prepared in the same manner as described in Test 1, was applied from an applicator at a rate of 3 ml per cup.
After scattering of the chemical dilution, the cup was covered, and after 24 hours, the numbers of killed and living larvae were counted and the mortality was calculated. The test was made on three cups and the average value was calculated.

[10] = fifth-instar larvae, read-out: Motality (%), Fifth-Instar Larvae
[11] = second-instar larvae, read-out: Motality (%), Second-Instar Larvae
[12] = 100 ppm, mortality class, 24 hours

Structure (SMILES)	LD50 at 168 h [1]	mortality at 20 ppm [2]	mortality at 100 ppm [2]	mortality at 20 ppm [3, 10]	mortality at 20 ppm [3, 11]	mortality at 100 ppm [3, 10]	mortality at 100 ppm [3, 11]	mortality at 20 ppm [4]	mortality at 100 ppm [4]	mortality at 20 ppm [5]	mortality at 100 ppm [5]	mortality at 100 ppm [6, 12]	LC50 at 48 h [7]	mortality at 10 mg/m2 [8]	mortality at 50 mg/m2 [8]	mortality at 20 ppm [9]	mortality at 100 ppm [9]	mortality at 100 ppm ([6]; 24 h)
Cc1ccc(C(C)(C)COCc2cccc(Oc3ccc(F)cc3)c2)cc1 [Compound 3, 3-(4-Fluorophenoxy)benzyl 2-(4-methylphenyl)-2-methylpropyl ether]	> 500 mg/kg	100%	100%	60%	70%	70%	90%	83%	100%	100%	100%	> 95%	–	–	–	–	–	–
CC(C)(COCc1cccc(C(=O)c2ccccc2)c1)c1ccc(Cl)cc1 [Compound 22, 3-Benzoylbenzyl 2-(4-chlorophenyl)-2-methylpropyl ether]	> 500 mg/kg	80%	100%	–	–	–	–	–	–	50%	100%	–	> 10 µg/mL	90%	100%	–	–	–
COC(C)c1ccc(C(C)(C)COCc2cccc(Oc3ccccc3)c2)cc1 (centres unmarked) [Compound 86, 3-Phenoxybenzyl 2[4-(1-methoxyethyl)phenyl]-2-methylpropyl ether]	> 500 mg/kg	–	–	–	–	–	–	–	–	–	–	80 to 95%	–	–	–	–	–	–
C#Cc1ccc(C(C)(C)COCc2cccc(Oc3ccccc3)c2)cc1 [Compound 96, 3-Phenoxybenzyl 2-(4-ethynylphenyl)-2-methylpropyl ether]	> 500 mg/kg	90%	100%	–	–	–	–	–	–	60%	100%	80 to 95%	–	–	–	–	–	–
CC(C)(COCc1cccc(Oc2ccc(Br)cc2)c1)c1ccc(OC(F)F)cc1 [Compound 30, 3-(4-Bromophenoxy)benzyl 2-(4-difluoromethoxyphenyl)-2-methylpropyl ether]	> 500 mg/kg	100%	100%	–	–	–	–	80%	100%	100%	100%	–	> 1 µg/mL	–	–	70%	100%	–
CC(C)(COCc1cccc(Oc2ccccc2)c1)c1cccc(C(F)(F)F)c1 [Compound 39, 3-Phenoxybenzyl 2-(3-trifluoromethylphenyl)-2-methylpropyl ether]	> 500 mg/kg	100%	100%	–	–	–	–	90%	100%	100%	100%	> 95%	–	90%	100%	–	–	–
CCOc1ccc(C(C)(CC)COCc2cccc(Oc3ccccc3)c2)cc1 (centres unmarked) [Compound 103, 3-Phenoxybenzyl 2-(4-ethoxyphenyl)-2-ethylpropyl ether]	> 500 mg/kg	100%	100%	–	–	–	–	100%	100%	100%	100%	> 95%	–	–	–	–	–	–
COP(=O)(NC(C)=O)SC (centres unmarked) [Comparative Compound (h), O,S-dimethyl N-acetylphosphoroamidothiolate, reference compound]	–	–	–	–	–	–	–	–	–	–	–	–	–	–	–	–	–	80 to 95%
CCOc1ccc(C(C)(C)COCc2cccc(Oc3ccccc3)c2)cc1Cl [Compound 78, 3-Phenoxybenzyl 2-(3-chloro-4-ethoxyphenyl)-2-methylpropyl ether]	> 500 mg/kg	100%	100%	–	–	–	–	100%	100%	100%	100%	> 95%	–	–	–	100%	100%	–
CC(C)(COCc1cccc(Oc2ccccc2)c1)c1ccc(F)cc1 [Compound 51, 3-Phenoxybenzyl 2-(4-fluorophenyl)-2-methylpropyl ether]	> 500 mg/kg	100%	100%	–	–	–	–	100%	100%	100%	100%	–	> 1 µg/mL	–	–	–	–	–
CC(C)(CSCc1cccc(Oc2ccc(Br)cc2)c1)c1ccc(Cl)cc1 [Compound 37]	> 500 mg/kg	70%	100%	–	–	–	–	100%	100%	50%	100%	–	> 10 µg/mL	–	–	100%	100%	–
CCOc1ccc(C(C)(C)CSCc2cccc(Oc3ccccc3)c2)cc1 [Compound 95]	> 500 mg/kg	100%	100%	–	–	–	–	100%	100%	100%	100%	> 95%	–	–	–	–	–	–
CCC(C)(COCc1cccc(Oc2ccc(F)cc2)c1)c1ccc(F)cc1 (centres unmarked) [Compound 2, 3-(4-fluorophenoxy)benzyl 2-(4-fluorophenyl)-2-methylbutyl ether]	> 500 mg/kg	95%	100%	–	–	–	–	90%	100%	80%	100%	–	> 1 µg/mL	–	–	100%	100%	–
CC(C)(COCc1cccc(Oc2ccc(Br)cc2)c1)c1ccc(Cl)cc1 [Compound 4, 3-(4-Bromophenoxy)benzyl 2-(4-chlorophenyl)-2-methylpropyl ether]	> 500 mg/kg	70%	100%	70%	90%	80%	90%	95%	100%	50%	100%	–	> 10 µg/mL	–	–	100%	100%	–
CC(C)(COCc1cccc(Oc2ccccc2)c1)c1ccc2ccccc2c1 [Compound 31, 3-Phenoxybenzyl 2-(2-naphthyl)-2-methylpropyl ether]	> 500 mg/kg	100%	100%	–	–	–	–	–	–	100%	100%	–	> 10 µg/mL	100%	100%	–	–	–
